System: ApoE−/− mice
Assay: Arteriosclerotic area of ApoE−/− mice aortic outflow tract
Format: in vivo
Conditions: high fat diet, vs HG (p<0.01), atorvastatin 50 mg/kg/d, total saponins 300 mg/kg/d, 6 weeks
Text: ApoE−/− mice were divided into four groups randomly by weight.
(1) Negative control group (CG): mice in this group were fed normally for 7 weeks, and intragastrically administrated with normal saline.
(2) High fat control group (HG): mice in this group were fed with high fat diet containing 0.2% cholesterol for 7 weeks, and intragastrically administrated with normal saline every day simultaneously.
(4) I. kudingcha total saponin therapeutic group (SG): the course of treatment is similar to that of AG, with the only difference between SG and AG lies in that the dosage of the total saponins from I. kudingcha is 300 mg/kg/d.
Effect of total saponins from I. kudingcha leaves on arteriosclerotic area of ApoE−/− mice aortic outflow tract is shown in FIG. 7.

Compound: CC(C)c1c(C(=O)Nc2ccccc2)c(-c2ccccc2)c(-c2ccc(F)cc2)n1CC[C@@H](O)C[C@@H](O)CC(=O)O [atorvastatin]
- inhibition rate of formation of atherosclerotic plaque of aortic outflow tract: about 40%

Source: patent US9109003B2, “Extraction method for Ilex kudingcha C. J. Tseng leaves, total saponins and use thereof” (Peking University, priority 2011, dated 2015)
